Converted amounts (≈) assume the structure as drawn. Where two headings read alike, the source gives them in different places.
Legend:
[1] = molecular target: T1, human ALDH1A1 (Homo sapiens, UniProt P00352); assay: Recombinant enzyme activity assay; type: biochemical; details: dose titration, up to 10 μM
T1 construct: made in house; host or cells: BL21-DE3 E. coli
T1 sequence (P00352 1-501): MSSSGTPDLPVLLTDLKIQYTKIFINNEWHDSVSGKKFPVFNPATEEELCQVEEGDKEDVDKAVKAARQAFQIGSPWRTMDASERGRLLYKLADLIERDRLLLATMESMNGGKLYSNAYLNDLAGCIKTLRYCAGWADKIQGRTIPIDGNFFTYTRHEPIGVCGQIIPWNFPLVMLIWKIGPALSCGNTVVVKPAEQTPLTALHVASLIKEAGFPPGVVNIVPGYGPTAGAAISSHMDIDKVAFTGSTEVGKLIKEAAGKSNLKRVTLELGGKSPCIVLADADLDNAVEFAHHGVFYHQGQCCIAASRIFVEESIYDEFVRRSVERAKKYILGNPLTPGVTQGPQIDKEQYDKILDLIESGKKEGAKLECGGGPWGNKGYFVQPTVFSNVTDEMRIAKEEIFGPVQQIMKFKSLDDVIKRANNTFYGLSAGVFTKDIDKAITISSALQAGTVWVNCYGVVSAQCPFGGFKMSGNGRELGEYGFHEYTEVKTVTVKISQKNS

[2] = Hepatocyte stability (human); type: in vitro ADME; details: hepatocytes, read-out: Hepatocyte T1/2 (human)
[3] = Kinetic solubility; type: physicochemical; details: kinetic from dmso stock
Description: (§1) Table 1 Physiochemical, biochemical, and metabolic profile of lead compounds MBE1 and MBE1.5 | column: MBE1; MBE1.5

[4] = Microsomal stability (human); type: in vitro ADME; details: microsomes, read-out: Microsomal T1/2 (human)
[5] = molecular target: CYP2D6 (Homo sapiens, UniProt P10635); assay: CYP inhibition; type: in vitro ADME
[6] = molecular target: hERG (Homo sapiens, UniProt Q12809); assay: hERG dofetilide binding assay
[7] = molecular target: T2, mouse ALDH1A3 (Mus musculus, UniProt Q9JHW9); assay: Recombinant enzyme activity assay; type: biochemical
T2 construct: made in house; host or cells: BL21-DE3 E. coli
T2 sequence (Q9JHW9 1-512): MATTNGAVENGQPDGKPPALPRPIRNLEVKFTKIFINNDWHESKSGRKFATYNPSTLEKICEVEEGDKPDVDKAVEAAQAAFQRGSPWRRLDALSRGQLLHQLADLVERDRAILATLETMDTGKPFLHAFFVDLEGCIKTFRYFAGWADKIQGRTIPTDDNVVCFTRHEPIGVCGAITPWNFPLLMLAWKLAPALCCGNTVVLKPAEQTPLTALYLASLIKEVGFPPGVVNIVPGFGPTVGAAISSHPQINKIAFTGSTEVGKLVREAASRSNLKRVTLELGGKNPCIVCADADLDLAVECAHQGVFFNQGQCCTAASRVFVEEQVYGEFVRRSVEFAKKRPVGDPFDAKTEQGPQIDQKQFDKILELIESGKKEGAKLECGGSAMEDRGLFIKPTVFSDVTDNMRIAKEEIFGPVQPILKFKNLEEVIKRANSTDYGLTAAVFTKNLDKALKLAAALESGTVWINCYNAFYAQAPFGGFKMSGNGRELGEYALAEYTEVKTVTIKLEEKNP

[8] = Protein binding (human); type: in vitro ADME; details: plasma
Description: as §1

[9] = pH 4.5, aqueous buffer, read-out: Kinetic solubility pH 4.5
[10] = pH 7.6, aqueous buffer, read-out: Kinetic solubility pH 7.6

Sequence of CYP2D6 (P10635 whole entry): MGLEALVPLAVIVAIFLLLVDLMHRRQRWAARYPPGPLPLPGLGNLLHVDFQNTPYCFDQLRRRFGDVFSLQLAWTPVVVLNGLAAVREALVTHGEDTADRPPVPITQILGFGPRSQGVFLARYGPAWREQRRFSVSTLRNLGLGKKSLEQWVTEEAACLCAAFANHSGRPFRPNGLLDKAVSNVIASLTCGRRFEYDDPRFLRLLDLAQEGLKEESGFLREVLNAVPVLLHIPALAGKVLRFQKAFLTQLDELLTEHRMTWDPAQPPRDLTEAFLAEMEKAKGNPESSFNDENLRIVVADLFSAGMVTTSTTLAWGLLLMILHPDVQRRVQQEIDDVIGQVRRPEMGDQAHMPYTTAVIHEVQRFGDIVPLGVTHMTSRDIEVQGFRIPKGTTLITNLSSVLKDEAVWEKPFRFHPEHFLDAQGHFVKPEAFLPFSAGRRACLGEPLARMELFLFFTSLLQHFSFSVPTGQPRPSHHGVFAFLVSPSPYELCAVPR
Sequence of hERG (Q12809 whole entry): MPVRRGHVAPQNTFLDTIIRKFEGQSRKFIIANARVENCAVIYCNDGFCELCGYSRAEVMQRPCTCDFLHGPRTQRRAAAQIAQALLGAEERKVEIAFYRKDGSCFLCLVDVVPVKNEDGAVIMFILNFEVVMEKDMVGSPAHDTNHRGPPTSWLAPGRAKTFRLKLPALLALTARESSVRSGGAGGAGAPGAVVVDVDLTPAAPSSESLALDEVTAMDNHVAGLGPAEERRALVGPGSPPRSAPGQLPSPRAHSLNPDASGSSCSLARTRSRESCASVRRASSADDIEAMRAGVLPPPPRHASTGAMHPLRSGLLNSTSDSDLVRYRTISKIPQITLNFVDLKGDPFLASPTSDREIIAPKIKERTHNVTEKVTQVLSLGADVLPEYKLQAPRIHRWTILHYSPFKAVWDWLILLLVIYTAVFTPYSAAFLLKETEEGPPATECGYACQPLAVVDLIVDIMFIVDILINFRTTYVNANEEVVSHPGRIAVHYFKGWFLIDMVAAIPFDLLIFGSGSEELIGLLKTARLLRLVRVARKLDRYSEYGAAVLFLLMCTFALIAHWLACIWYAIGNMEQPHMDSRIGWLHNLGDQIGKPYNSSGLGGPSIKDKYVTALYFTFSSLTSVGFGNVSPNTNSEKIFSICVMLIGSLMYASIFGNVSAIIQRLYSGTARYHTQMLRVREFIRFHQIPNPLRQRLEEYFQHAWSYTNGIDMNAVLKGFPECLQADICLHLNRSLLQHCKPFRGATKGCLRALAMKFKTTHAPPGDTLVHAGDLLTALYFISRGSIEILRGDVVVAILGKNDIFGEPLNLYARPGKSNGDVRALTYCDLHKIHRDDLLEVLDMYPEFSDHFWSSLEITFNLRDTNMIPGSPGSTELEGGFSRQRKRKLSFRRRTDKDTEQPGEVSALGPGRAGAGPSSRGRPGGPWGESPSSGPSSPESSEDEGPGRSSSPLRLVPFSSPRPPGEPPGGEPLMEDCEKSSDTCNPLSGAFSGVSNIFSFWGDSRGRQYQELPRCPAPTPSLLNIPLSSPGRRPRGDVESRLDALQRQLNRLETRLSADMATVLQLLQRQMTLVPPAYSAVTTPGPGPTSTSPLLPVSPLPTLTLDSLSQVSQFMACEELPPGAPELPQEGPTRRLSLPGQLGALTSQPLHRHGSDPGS

IC50 ([7]; recombinant activity assay (Table 1), read-out: IC50 molecular, mouse ALDH1A3) [nM] | Structure (SMILES) | inhibitory activity against ALDH1A1 (in words) [1] | half-life [2] [h] | solubility kinetic [3, 9] [µM] | solubility kinetic [3, 10] [µM] | half-life [4] [h] | inhibition at 10 µM [5] [%] | IC50 [6] [nM] | IC50 ([7]; dose titration, substrate competition assay, recombinant mouse ALDH1A3, 4-parameter equation, read-out: muALDH1A3 IC50) [nM] | fraction unbound [8]
– | CCc1cnccc1C(=O)Nc1cc2c(cc1F)NC(=O)CC2 [MBE1, 3-ethyl-N-(7-fluoro-2-oxo-3,4-dihydro-1H-quinolin-6-yl)pyridine-4-carboxamide] | no inhibition | > 3.61 | > 200 | > 200 | > 2.42 | 61.3 | > 30000 | 209 | 0.527
149 | CCc1ccccc1C(=O)Nc1cc2c(cc1F)NC(=O)CC2 [MBE1.5, 2-ethyl-N-(7-fluoro-2-oxo-3,4-dihydro-1H-quinolin-6-yl)benzamide] | no inhibition | > 3.61 | 34.2 (≈ 10.7 µg/mL) | 33.3 (≈ 10.4 µg/mL) | > 2.42 | 0 | > 30000 | – | 0.137
